Reference: US20120077753A1, “JNK INHIBITORS FOR USE IN TREATING SPINAL MUSCULAR ATROPHY” (priority 2009, published 2012)

Assays:
[1] = target: JNK3 (Homo sapiens, UniProt P53779); conditions: cited from earlier work
[2] = tested on: a range of kinases and enzymes; conditions: cited from earlier work
[3] = tested on: phosphorylation of c-Jun; conditions: in cells; cited from earlier work
[4] = tested on: Primary neurons; test: Degeneration of primary neurons transfected with siRNA-Smn or scrambled siRNA (tubulin staining, confocal microscopy); assay type: cell-based, mice
Description: (§1) Primary neurons transfected with scrambled siRNA (Control) and SMN specific siRNA (siRNA-Smn) were treated with DMSO or SP600125 after 36 h (post-transfection). Neurons were incubated for additional 60 h, fixed and stained with antibodies to Tubulin and phospho-JNK. Stained neurons were examined by confocal microscopy. Primary neurons transfected with scrambled siRNA (Control) and SMN specific siRNA (siRNA-Smn) were treated with DMSO or SP600125 after 36 h (post-transfection). Neurons were incubated for additional 60 h, fixed and stained with antibodies to Tubulin and phospho-c-Jun. Stained neurons were examined by confocal microscopy. To determine whether JNK activity is required for neurodegeneration, the effect of JNK inhibitor (SP600125) was examine on degeneration of neurons caused by SMN-deficiency. […] The knockdown of SMN neurons treated with solvent (DMSO) results in degeneration of neurons as expected. […] To determine whether the neuroprotection is a result of JNK inhibition achieved by treatment of SP600125, the phosphorylation of c-Jun was examined. […] To determine whether activation of JNK is normal in neurons treated with siRNA and JNK inhibitor, phospho-JNK was examined because JNK is activated by phosphorylation.

[5] = tested on: phosphorylation of c-Jun; test: Phospho-c-Jun staining in primary neurons lacking SMN; assay type: cell-based, mice; conditions: neurons lacking SMN (siRNA-Smn), vs untreated with JNK inhibitor
Description: as §1, with “Primary” for “Primary neurons transfected with scrambled siRNA (Control) and SMN specific siRNA (siRNA-Smn) were treated with DMSO or SP600125 after 36 h (post-transfection). Neurons were incubated for additional 60 h, fixed and stained with antibodies to Tubulin and phospho-JNK. Stained neurons were examined by confocal microscopy. Primary”

[6] = tested on: CD4+ CD8+ thymocytes; conditions: animal studies; cited from earlier work
[7] = tested on: phospho-JNK; test: Phospho-JNK staining in primary neurons lacking SMN; assay type: cell-based, mice; conditions: neurons treated with siRNA+SP600125
Description: as §1, with “phospho-JNK.” for “phospho-JNK. Stained neurons were examined by confocal microscopy. Primary neurons transfected with scrambled siRNA (Control) and SMN specific siRNA (siRNA-Smn) were treated with DMSO or SP600125 after 36 h (post-transfection). Neurons were incubated for additional 60 h, fixed and stained with antibodies to Tubulin and phospho-c-Jun.”

[8] = tested on: tumor necrosis factor-α; conditions: animal studies; cited from earlier work
[9] = target: JNK-1, -2, and -3; conditions: ATP-competitive reversible inhibitor; cited from earlier work

Sequence of JNK3 (P53779 whole entry, species assumed): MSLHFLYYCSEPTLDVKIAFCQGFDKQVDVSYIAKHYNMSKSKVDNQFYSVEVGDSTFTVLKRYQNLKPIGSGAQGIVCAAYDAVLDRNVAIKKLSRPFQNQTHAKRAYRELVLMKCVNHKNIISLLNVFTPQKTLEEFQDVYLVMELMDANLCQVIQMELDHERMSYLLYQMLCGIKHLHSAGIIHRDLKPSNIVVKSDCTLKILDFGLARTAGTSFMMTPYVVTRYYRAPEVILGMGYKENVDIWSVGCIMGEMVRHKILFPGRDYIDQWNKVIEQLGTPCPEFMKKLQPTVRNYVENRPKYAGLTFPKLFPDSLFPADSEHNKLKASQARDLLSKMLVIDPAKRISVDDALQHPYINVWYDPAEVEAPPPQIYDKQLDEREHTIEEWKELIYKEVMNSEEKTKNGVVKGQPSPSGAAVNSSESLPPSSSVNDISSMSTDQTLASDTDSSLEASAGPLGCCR

Cc1ccc(OCCCCCNc2cccc3c2C(=O)c2cccc4[nH]nc-3c24)cc1 [7-(5-(p-Tolyloxy)pentyl)amino-2H-anthra[1,9-cd]pyrazol-6-one]
JNK3 selectivity [1]: selective inhibitors of JNK3

O=C1c2ccccc2-c2n[nH]c3cccc1c23 [SP600125, Anthra[1,9-cd]pyrazol-6(2H)-on]
selectivity vs. a range of kinases and enzymes tested [2]: > 20 fold
inhibition of the phosphorylation of c-Jun [3]: dose-dependent inhibition
neuron degeneration in control experiments ([4]; control neurons, SP600125): did not cause neuron degeneration
degeneration of neurons caused by SMN-deficiency ([4]; neurons transfected with siRNA-Smn, inhibitor added 36 h post-transfection, additional 60 h, vs solvent (DMSO)): marked reduction in degeneration
phosphorylation of c-Jun [5]: marked reduction in the phosphorylation of c-Jun
anti-CD3-induced apoptosis of CD4+ CD8+ thymocytes [6]: prevented
phospho-JNK (JNK activation) [7]: presence of phospho-JNK
bacterial lipopolysaccharide-induced expression of tumor necrosis factor-α [8]: inhibited
Ki [9]: 190 nM

O=C(NCCCCCCCNc1cccc2c1C(=O)c1cccc3[nH]nc-2c13)c1ccccc1 [7-(7-7V-Benzoylaminoheptyl)amino-2H-anthra[1,9-cd]pyrazol-6-one]
JNK3 selectivity [1]: selective inhibitors of JNK3

O=C1c2c(CCCCCNc3ccccc3)cccc2-c2n[nH]c3cccc1c23 [7-(5-7V-Phenylaminopentyl)-2H-anthra[1,9-cd]pyrazol-6-one]
JNK3 selectivity [1]: selective inhibitors of JNK3
